molecular target: A2A adenosine receptors (Homo sapiens, UniProt P29274); experiment: A2A Ki binding (methodology of Murphree et al., Mol Pharmacol 2002, 61, 455-62)
Source text: The Ki values were obtained using the methodology described by Murphree et al. in Mol Pharmacol 2002, 61, 455-62.

A2A adenosine receptors, sequence (P29274 whole entry): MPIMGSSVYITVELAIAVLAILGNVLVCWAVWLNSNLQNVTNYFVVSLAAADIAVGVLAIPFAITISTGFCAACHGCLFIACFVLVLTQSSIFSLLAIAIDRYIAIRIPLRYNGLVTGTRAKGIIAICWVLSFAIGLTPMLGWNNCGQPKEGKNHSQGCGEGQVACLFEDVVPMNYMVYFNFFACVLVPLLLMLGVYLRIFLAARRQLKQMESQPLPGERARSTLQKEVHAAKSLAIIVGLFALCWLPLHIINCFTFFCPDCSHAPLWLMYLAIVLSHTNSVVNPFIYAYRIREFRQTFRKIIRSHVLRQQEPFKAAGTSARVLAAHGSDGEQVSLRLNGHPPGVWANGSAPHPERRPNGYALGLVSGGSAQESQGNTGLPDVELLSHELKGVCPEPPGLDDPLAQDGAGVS

Row | SMILES | Ki
1 | CCNC(=O)[C@H]1O[C@@H](n2cnc3c(N)nc(C#CCN(Cc4ccc(OC)cc4)C(=O)C4CC4)nc32)C(O)[C@@H]1O (stereo partly drawn) [Example 36] | 1 to 50 nM
2 | CNC(=O)[C@H]1O[C@@H](n2cnc3c(N)nc(C#CCN(C)C(=O)c4cccnc4)nc32)C(O)[C@@H]1O (stereo partly drawn) [Example 9, N-Methyl 2-{3-[N-methylnicotinamido]propyn-1-yl}adenosine-5′-uronamide] | 1 to 50 nM
3 | CNC(=O)[C@H]1O[C@@H](n2cnc3c(N)nc(C#CCN(C(=O)c4ccc(F)cc4)C4CCC4)nc32)C(O)[C@@H]1O (stereo partly drawn) [Example 19] | < 1 nM
4 | Nc1nc(C#CCN(C(=O)Cc2ccccc2)C2CC2)nc2c1ncn2[C@@H]1O[C@H](C(=O)NC2CC2)[C@@H](O)C1O (stereo partly drawn) [Example 16] | 1 to 50 nM
5 | Nc1nc(C#CCN(C(=O)c2ccccc2)C2CC2)nc2c1ncn2[C@@H]1O[C@H](C(=O)NC2CC2)[C@@H](O)C1O (stereo partly drawn) [Example 25] | < 1 nM
6 | CNC(=O)[C@H]1O[C@@H](n2cnc3c(N)nc(C#CCN(C)C(=O)c4ccc(F)cc4)nc32)C(O)[C@@H]1O (stereo partly drawn) [Example 15, N-Methyl 2-{3-[4-fluoro-N-methylbenzamido]propyn-1-yl}adenosine-5′-uronamide] | < 1 nM
7 | CNC(=O)[C@H]1O[C@@H](n2cnc3c(N)nc(C#CCN(C(=O)c4ccc(Cl)cc4)C4CCC4)nc32)C(O)[C@@H]1O (stereo partly drawn) [Example 30] | < 1 nM
8 | CNC(=O)[C@H]1O[C@@H](n2cnc3c(N)nc(C#CCN(C(=O)c4cccc(F)c4)C4CCC4)nc32)C(O)[C@@H]1O (stereo partly drawn) [Example 20] | < 1 nM
9 | CCNC(=O)[C@H]1O[C@@H](n2cnc3c(N)nc(C#CCN(C)C(=O)c4ccc(F)nc4)nc32)C(O)[C@@H]1O (stereo partly drawn) [Example 35] | < 1 nM
10 | CNC(=O)[C@H]1O[C@@H](n2cnc3c(N)nc(C#CCN(Cc4cccs4)C(=O)c4ccccc4)nc32)C(O)[C@@H]1O (stereo partly drawn) [Example 34] | 1 to 50 nM
11 | CNC(=O)[C@H]1O[C@@H](n2cnc3c(N)nc(C#CCN(C)C(=O)c4ccc(OC)c(F)c4)nc32)C(O)[C@@H]1O (stereo partly drawn) [Example 29] | < 1 nM
12 | Nc1nc(C#CCN(C(=O)c2ccc(Cl)nc2)C2CC2)nc2c1ncn2[C@@H]1O[C@H](C(=O)NC2CC2)[C@@H](O)C1O (stereo partly drawn) [Example 24] | < 1 nM
13 | CNC(=O)[C@H]1O[C@@H](n2cnc3c(N)nc(C#CCN(C)C(=O)c4ccncc4)nc32)C(O)[C@@H]1O (stereo partly drawn) [Example 10, N-Methyl 2-{3-[N-methylisonicotinamido]propyn-1-yl}adenosine-5′-uronamide] | 1 to 50 nM
14 | CCNC(=O)[C@H]1O[C@@H](n2cnc3c(N)nc(C#CCN(C)C(=O)c4ccc(C(F)(F)F)nc4)nc32)C(O)[C@@H]1O (stereo partly drawn) [Example 28] | < 1 nM
15 | CNC(=O)[C@H]1O[C@@H](n2cnc3c(N)nc(C#CCN(C(=O)c4ccccc4)C4CC4)nc32)C(O)[C@@H]1O (stereo partly drawn) [Example 23] | > 50 nM
16 | COc1ccc(CN(CC#Cc2nc(N)c3ncn([C@@H]4O[C@H](C(=O)NC5CC5)[C@@H](O)C4O)c3n2)C(=O)C2CC2)cc1 (stereo partly drawn) [Example 18] | < 1 nM
17 | CNC(=O)[C@H]1O[C@@H](n2cnc3c(N)nc(C#CCN(C(=O)c4ccc(Cl)nc4)C4CC4)nc32)C(O)[C@@H]1O (stereo partly drawn) [Example 22] | < 1 nM
18 | Nc1nc(C#CCN(C(=O)c2ccccc2)C2CCC2)nc2c1ncn2[C@@H]1O[C@H](C(=O)NC2CC2)[C@@H](O)C1O (stereo partly drawn) [Example 4, N-Cyclopropyl 2-{3-[N-(cyclobutyl)benzamido]propyn-1-yl}adenosine-5′-uronamide] | < 1 nM

Row | SMILES | Ki
19 | CNC(=O)[C@H]1O[C@@H](n2cnc3c(N)nc(C#CCN(C(=O)c4ccc(OC)c(F)c4)C4CCC4)nc32)C(O)[C@@H]1O (stereo partly drawn) [Example 21] | < 1 nM
20 | CNC(=O)[C@H]1O[C@@H](n2cnc3c(N)nc(C#CCN(C)C(=O)c4ccc(C#N)cc4)nc32)C(O)[C@@H]1O (stereo partly drawn) [Example 33] | < 1 nM
21 | CNC(=O)[C@H]1O[C@@H](n2cnc3c(N)nc(C#CCN(C(=O)c4ccccc4)C4CCC4)nc32)C(O)[C@@H]1O (stereo partly drawn) [Example 8, N-Methyl 2-{3-[N-(cyclobutyl)benzamido]propyn-1-yl}adenosine-5′-uronamide] | < 1 nM
22 | CNC(=O)[C@H]1O[C@@H](n2cnc3c(N)nc(C#CCN(C)C(=O)c4ccc(F)nc4)nc32)C(O)[C@@H]1O (stereo partly drawn) [Example 6, N-Methyl 2-{3-[N-methyl-1-(6-fluoropyridin-3-yl)formamido]prop-1-yn-1-yl}adenosine-5′-uronamide] | < 1 nM
23 | CCNC(=O)[C@H]1O[C@@H](n2cnc3c(N)nc(C#CCN(C(=O)c4ccc(Cl)nc4)C4CC4)nc32)C(O)[C@@H]1O (stereo partly drawn) [Example 26] | < 1 nM
24 | CNC(=O)[C@H]1O[C@@H](n2cnc3c(N)nc(C#CCN(C)C(=O)c4ccccc4)nc32)C(O)[C@@H]1O (stereo partly drawn) [Example 13, N-Methyl 2-{3-[N-methylbenzamido]propyn-1-yl}adenosine-5′-uronamide] | < 1 nM
25 | CNC(=O)[C@H]1O[C@@H](n2cnc3c(N)nc(C#CCN(CCOC)C(=O)c4ccccc4)nc32)C(O)[C@@H]1O (stereo partly drawn) [Example 14, N-Methyl 2-{3-[N-(2-methoxyethyl)benzamido]propyn-1-yl}adenosine-5′-uronamide] | < 1 nM
26 | CN(CC#Cc1nc(N)c2ncn([C@@H]3O[C@H](C(=O)NC4CC4)[C@@H](O)C3O)c2n1)C(=O)c1ccc(F)nc1 (stereo partly drawn) [Example 7, N-Cyclopropyl 2-{3-[N-methyl-1-(6-fluoropyridin-3-yl)formamido]prop-1-yn-1-yl}adenosine-5′-uronamide] | 1 to 50 nM
27 | CNC(=O)[C@H]1O[C@@H](n2cnc3c(N)nc(C#CCN(CCOC)C(=O)c4cccs4)nc32)C(O)[C@@H]1O (stereo partly drawn) [Example 12, N-Methyl 2-{3-[N-(2-methoxyethyl)thiophene-2-carboxamido]propyn-1-yl}adenosine-5′-uronamide] | < 1 nM
28 | CNC(=O)[C@H]1O[C@@H](n2cnc3c(N)nc(C#CCN(CC(C)C)C(=O)c4ccccc4)nc32)C(O)[C@@H]1O (stereo partly drawn) [Example 32] | < 1 nM
29 | Nc1nc(C#CCNC(=O)c2ccccc2)nc2c1ncn2[C@@H]1O[C@H](C(=O)NC2CC2)[C@@H](O)C1O (stereo partly drawn) [Example 5, N-Cyclopropyl 2-{3-[benzamido]propyn-1-yl}adenosine-5′-uronamide] | 1 to 50 nM
30 | CNC(=O)[C@H]1O[C@@H](n2cnc3c(N)nc(C#CCN(C(=O)c4ccccc4)C4CCCC4)nc32)C(O)[C@@H]1O (stereo partly drawn) [Example 31] | < 1 nM
31 | CNC(=O)[C@H]1O[C@@H](n2cnc3c(N)nc(C#CCN(C)C(=O)c4ccc(C(F)(F)F)nc4)nc32)C(O)[C@@H]1O (stereo partly drawn) [Example 1, N-Methyl 2-(3-{N-methyl-1-[6-(trifluoromethyl)pyridin-3-yl]formamido}prop-1-yn-1-yl)adenosine-5′-uronamide] | < 1 nM
32 | CNC(=O)[C@H]1O[C@@H](n2cnc3c(N)nc(C#CCN(Cc4ccc(OC)cc4)C(=O)C4CC4)nc32)C(O)[C@@H]1O (stereo partly drawn) [Example 17] | 1 to 50 nM
33 | CNC(=O)[C@H]1O[C@@H](n2cnc3c(N)nc(C#CCN(CCOC)C(=O)c4ccc(F)nc4)nc32)C(O)[C@@H]1O (stereo partly drawn) [Example 11, N-Methyl 2-{3-[6-fluoro-N-(2-methoxyethyl)nicotinamido]propyn-1-yl}adenosine-5′-uronamide] | < 1 nM
34 | CCNC(=O)[C@H]1O[C@@H](n2cnc3c(N)nc(C#CCN(C(=O)Cc4ccccc4)C4CC4)nc32)C(O)[C@@H]1O (stereo partly drawn) [Example 27] | 1 to 50 nM
35 | CN(CC#Cc1nc(N)c2ncn([C@@H]3O[C@H](C(=O)NC4CC4)[C@@H](O)C3O)c2n1)C(=O)c1ccc(C(F)(F)F)nc1 (stereo partly drawn) [Example 2, N-Cyclopropyl 2-(3-{N-methyl-1-[6-(trifluoromethyl)pyridin-3-yl]formamido}prop-1-yn-1-yl)adenosine-5′-uronamide] | < 1 nM
36 | Nc1nc(C#CCN(CC2CC2)C(=O)c2ccccc2)nc2c1ncn2[C@@H]1O[C@H](C(=O)NC2CC2)[C@@H](O)C1O (stereo partly drawn) [Example 3, N-Cyclopropyl 2-{3-[N-(cyclopropylmethyl)benzamido]propyn-1-yl}adenosine-5′-uronamide] | < 1 nM
